From ChEMBL document CHEMBL4507294, “Data for DCP probe MSD-CYP11B2” (2021)

Experiments:
[1] = target: Atypical kinase COQ8A, mitochondrial (Homo sapiens) (UniProt Q8NI60); conditions: Compound concentration 1000.0 nM
[2] = tested on: ALK tyrosine kinase receptor (Homo sapiens), Q9UM73 [L1196M]; conditions: Compound concentration 1000.0 nM
[3] = target: Aurora kinase A (Homo sapiens) (UniProt O14965); conditions: Compound concentration 1000.0 nM
[4] = target: Tyrosine-protein kinase receptor UFO (Homo sapiens) (UniProt P30530); conditions: Compound concentration 1000.0 nM
[5] = target: Calcium/calmodulin-dependent protein kinase type IV (Homo sapiens) (UniProt Q16566); conditions: Compound concentration 1000.0 nM
[6] = target: Cyclin-dependent kinase 8 (Homo sapiens) (UniProt P49336); conditions: Compound concentration 1000.0 nM
[7] = target: Cyclin-dependent kinase-like 5 (Homo sapiens) (UniProt O76039); conditions: Compound concentration 1000.0 nM
[8] = target: Citron Rho-interacting kinase (Homo sapiens) (UniProt O14578); conditions: Compound concentration 1000.0 nM
[9] = target: Megakaryocyte-associated tyrosine-protein kinase (Homo sapiens) (UniProt P42679); conditions: Compound concentration 1000.0 nM
[10] = target: Epithelial discoidin domain-containing receptor 1 (Homo sapiens) (UniProt Q08345); conditions: Compound concentration 1000.0 nM
[11] = target: Discoidin domain-containing receptor 2 (Homo sapiens) (UniProt Q16832); conditions: Compound concentration 1000.0 nM
[12] = target: Dual specificity tyrosine-phosphorylation-regulated kinase 2 (Homo sapiens) (UniProt Q92630); conditions: Compound concentration 1000.0 nM
[13] = target: Ephrin type-B receptor 3 (Homo sapiens) (UniProt P54753); conditions: Compound concentration 1000.0 nM
[14] = tested on: Receptor-type tyrosine-protein kinase FLT3 (Homo sapiens), P36888 [D835Y]; conditions: Compound concentration 1000.0 nM
[15] = tested on: Receptor-type tyrosine-protein kinase FLT3 (Homo sapiens), P36888 [R834Q]; conditions: Compound concentration 1000.0 nM
[16] = target: Insulin receptor-related protein (Homo sapiens) (UniProt P14616); conditions: Compound concentration 1000.0 nM
[17] = target: Serine/threonine-protein kinase 4 (Homo sapiens) (UniProt Q13043); conditions: Compound concentration 1000.0 nM
[18] = target: Macrophage-stimulating protein receptor (Homo sapiens) (UniProt Q04912); conditions: Compound concentration 1000.0 nM
[19] = target: Muscle, skeletal receptor tyrosine-protein kinase (Homo sapiens) (UniProt O15146); conditions: Compound concentration 1000.0 nM
[20] = target: Serine/threonine-protein kinase Nek4 (Homo sapiens) (UniProt P51957); conditions: Compound concentration 1000.0 nM
[21] = target: Serine/threonine-protein kinase Nek6 (Homo sapiens) (UniProt Q9HC98); conditions: Compound concentration 1000.0 nM
[22] = target: Serine/threonine-protein kinase Nek9 (Homo sapiens) (UniProt Q8TD19); conditions: Compound concentration 1000.0 nM
[23] = target: Serine/threonine-protein kinase PLK2 (Homo sapiens) (UniProt Q9NYY3); conditions: Compound concentration 1000.0 nM
[24] = target: Serine/threonine-protein kinase PLK3 (Homo sapiens) (UniProt Q9H4B4); conditions: Compound concentration 1000.0 nM
[25] = target: cGMP-dependent protein kinase 2 (Homo sapiens) (UniProt Q13237); conditions: Compound concentration 1000.0 nM
[26] = target: Proto-oncogene tyrosine-protein kinase receptor Ret (Homo sapiens) (UniProt P07949); conditions: Compound concentration 1000.0 nM
[27] = target: Serine/threonine-protein kinase RIO2 (Homo sapiens) (UniProt Q9BVS4); conditions: Compound concentration 1000.0 nM
[28] = target: Receptor-interacting serine/threonine-protein kinase 1 (Homo sapiens) (UniProt Q13546); conditions: Compound concentration 1000.0 nM
[29] = target: Ribosomal protein S6 kinase alpha-1 (Homo sapiens) (UniProt Q15418); conditions: Compound concentration 1000.0 nM
[30] = target: Uncharacterized serine/threonine-protein kinase SBK3 (Homo sapiens) (UniProt P0C264); conditions: Compound concentration 1000.0 nM
[31] = target: Serine/threonine-protein kinase TAO1 (Homo sapiens) (UniProt Q7L7X3); conditions: Compound concentration 1000.0 nM
[32] = target: Vascular endothelial growth factor receptor 2 (Homo sapiens) (UniProt P35968); conditions: Compound concentration 1000.0 nM
[33] = target: 5-hydroxytryptamine receptor 1B (Homo sapiens) (UniProt P28222); conditions: Compound concentration 10.0 uM
[34] = target: T1, 5-hydroxytryptamine receptor 3A (Homo sapiens) (UniProt P46098); conditions: Compound concentration 10.0 uM
T1 sequence (whole entry): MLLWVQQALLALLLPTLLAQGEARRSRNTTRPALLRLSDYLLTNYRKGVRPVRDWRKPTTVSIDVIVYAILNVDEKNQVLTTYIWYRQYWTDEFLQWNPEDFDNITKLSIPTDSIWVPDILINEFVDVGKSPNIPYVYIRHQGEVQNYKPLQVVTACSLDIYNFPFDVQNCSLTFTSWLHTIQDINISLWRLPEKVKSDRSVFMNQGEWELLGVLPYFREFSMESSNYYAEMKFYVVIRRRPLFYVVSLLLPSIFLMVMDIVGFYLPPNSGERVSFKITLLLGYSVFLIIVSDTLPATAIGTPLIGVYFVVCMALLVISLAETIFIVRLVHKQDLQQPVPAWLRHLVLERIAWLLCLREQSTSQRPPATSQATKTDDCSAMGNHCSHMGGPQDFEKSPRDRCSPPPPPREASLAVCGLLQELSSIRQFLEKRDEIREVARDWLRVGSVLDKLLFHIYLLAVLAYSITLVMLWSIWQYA

[35] = target: D(3) dopamine receptor (Homo sapiens) (UniProt P35462); conditions: Compound concentration 10.0 uM
[36] = target: Beta-3 adrenergic receptor (Homo sapiens) (UniProt P13945); conditions: Compound concentration 10.0 uM
[37] = target: D(1A) dopamine receptor (Homo sapiens) (UniProt P21728); conditions: Compound concentration 10.0 uM
[38] = target: Estrogen receptor (Homo sapiens) (UniProt P03372); conditions: Compound concentration 10.0 uM
[39] = target: Histamine H4 receptor (Homo sapiens) (UniProt Q9H3N8); conditions: Compound concentration 10.0 uM

Sequence of Dual specificity tyrosine-phosphorylation-regulated kinase 2 (Homo sapiens) (Q92630 whole entry): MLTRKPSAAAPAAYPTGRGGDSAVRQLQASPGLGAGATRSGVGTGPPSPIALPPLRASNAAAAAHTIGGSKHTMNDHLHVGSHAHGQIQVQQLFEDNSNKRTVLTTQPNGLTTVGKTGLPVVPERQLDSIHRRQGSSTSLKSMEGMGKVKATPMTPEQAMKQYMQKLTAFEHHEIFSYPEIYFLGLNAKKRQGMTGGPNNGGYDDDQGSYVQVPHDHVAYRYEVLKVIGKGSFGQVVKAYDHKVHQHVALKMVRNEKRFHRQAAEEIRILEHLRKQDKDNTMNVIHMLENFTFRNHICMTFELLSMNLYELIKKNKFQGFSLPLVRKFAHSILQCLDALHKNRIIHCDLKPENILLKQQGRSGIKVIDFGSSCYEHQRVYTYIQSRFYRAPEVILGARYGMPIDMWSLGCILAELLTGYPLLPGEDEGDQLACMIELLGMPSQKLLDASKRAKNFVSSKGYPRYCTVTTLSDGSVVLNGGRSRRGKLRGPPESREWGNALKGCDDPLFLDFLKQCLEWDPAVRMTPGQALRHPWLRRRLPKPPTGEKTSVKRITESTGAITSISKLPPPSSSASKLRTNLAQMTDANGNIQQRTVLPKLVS
Sequence of Ribosomal protein S6 kinase alpha-1 (Homo sapiens) (Q15418 whole entry): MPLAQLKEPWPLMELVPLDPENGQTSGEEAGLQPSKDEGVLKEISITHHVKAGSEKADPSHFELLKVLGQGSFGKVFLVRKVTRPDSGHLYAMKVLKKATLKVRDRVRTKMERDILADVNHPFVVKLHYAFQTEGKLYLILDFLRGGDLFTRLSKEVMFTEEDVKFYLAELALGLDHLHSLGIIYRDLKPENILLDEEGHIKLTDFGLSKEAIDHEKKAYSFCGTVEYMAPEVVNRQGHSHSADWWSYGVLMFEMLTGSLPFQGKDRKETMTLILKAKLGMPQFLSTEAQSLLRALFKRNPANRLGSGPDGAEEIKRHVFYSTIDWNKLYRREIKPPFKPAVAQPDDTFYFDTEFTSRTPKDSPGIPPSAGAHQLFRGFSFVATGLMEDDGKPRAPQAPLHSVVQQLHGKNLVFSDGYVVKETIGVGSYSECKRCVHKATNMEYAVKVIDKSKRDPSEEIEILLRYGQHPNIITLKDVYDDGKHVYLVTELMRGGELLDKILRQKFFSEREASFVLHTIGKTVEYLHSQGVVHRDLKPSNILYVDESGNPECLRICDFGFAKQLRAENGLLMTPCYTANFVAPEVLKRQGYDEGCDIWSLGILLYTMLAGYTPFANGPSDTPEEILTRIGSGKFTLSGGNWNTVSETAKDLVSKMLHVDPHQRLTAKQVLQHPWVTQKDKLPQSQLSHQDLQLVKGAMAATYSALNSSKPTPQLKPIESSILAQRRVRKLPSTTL
Sequence of Atypical kinase COQ8A, mitochondrial (Homo sapiens) (Q8NI60 163-647 limits assumed): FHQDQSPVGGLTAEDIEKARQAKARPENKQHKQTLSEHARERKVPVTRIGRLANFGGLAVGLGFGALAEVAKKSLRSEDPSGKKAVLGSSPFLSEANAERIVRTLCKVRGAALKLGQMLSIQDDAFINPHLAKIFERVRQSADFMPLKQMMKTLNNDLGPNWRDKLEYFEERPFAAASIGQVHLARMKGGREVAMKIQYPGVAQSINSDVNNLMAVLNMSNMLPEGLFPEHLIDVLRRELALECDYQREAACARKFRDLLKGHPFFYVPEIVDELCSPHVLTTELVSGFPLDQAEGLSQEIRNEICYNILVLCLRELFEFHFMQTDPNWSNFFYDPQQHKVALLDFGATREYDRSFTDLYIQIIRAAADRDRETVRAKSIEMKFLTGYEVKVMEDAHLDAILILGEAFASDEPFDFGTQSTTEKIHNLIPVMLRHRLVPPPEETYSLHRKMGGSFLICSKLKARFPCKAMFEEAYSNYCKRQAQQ
Sequence of Cyclin-dependent kinase-like 5 (Homo sapiens) (O76039 whole entry): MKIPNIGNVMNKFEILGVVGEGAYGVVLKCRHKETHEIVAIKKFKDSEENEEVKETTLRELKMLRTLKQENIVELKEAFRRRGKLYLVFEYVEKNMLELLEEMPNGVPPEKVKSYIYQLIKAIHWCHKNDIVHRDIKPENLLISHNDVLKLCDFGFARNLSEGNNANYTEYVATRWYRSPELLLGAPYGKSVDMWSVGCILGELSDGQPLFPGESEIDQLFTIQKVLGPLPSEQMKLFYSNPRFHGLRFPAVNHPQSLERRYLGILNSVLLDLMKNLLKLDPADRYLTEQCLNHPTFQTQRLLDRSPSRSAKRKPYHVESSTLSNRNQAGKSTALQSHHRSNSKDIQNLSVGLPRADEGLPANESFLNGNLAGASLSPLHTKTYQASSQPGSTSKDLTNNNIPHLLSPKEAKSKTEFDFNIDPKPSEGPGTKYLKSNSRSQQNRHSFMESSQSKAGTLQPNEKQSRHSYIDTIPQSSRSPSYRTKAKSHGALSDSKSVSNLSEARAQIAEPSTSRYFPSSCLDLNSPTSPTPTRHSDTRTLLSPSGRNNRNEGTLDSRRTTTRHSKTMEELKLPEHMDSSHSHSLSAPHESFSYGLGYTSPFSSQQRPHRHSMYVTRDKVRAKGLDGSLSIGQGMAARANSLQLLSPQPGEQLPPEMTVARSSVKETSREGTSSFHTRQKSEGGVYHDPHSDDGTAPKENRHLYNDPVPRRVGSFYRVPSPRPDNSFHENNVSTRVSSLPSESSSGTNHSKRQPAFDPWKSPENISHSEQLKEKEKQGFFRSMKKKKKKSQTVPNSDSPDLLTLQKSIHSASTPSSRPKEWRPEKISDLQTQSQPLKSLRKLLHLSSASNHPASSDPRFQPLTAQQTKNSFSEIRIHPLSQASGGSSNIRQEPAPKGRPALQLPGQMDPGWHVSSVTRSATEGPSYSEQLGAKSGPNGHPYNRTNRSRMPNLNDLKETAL
Sequence of Beta-3 adrenergic receptor (Homo sapiens) (P13945 whole entry, looked up): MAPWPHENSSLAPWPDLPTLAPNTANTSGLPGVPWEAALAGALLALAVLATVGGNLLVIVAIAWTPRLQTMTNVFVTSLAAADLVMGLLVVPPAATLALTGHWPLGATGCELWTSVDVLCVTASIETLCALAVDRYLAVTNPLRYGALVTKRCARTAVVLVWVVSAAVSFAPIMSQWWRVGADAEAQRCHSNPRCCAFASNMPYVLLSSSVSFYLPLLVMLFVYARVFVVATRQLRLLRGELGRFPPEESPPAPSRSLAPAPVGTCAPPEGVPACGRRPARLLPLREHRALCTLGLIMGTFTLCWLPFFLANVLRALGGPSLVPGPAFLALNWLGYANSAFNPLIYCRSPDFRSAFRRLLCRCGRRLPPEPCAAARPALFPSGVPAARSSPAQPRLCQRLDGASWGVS
Sequence of Serine/threonine-protein kinase Nek4 (Homo sapiens) (P51957 whole entry, looked up): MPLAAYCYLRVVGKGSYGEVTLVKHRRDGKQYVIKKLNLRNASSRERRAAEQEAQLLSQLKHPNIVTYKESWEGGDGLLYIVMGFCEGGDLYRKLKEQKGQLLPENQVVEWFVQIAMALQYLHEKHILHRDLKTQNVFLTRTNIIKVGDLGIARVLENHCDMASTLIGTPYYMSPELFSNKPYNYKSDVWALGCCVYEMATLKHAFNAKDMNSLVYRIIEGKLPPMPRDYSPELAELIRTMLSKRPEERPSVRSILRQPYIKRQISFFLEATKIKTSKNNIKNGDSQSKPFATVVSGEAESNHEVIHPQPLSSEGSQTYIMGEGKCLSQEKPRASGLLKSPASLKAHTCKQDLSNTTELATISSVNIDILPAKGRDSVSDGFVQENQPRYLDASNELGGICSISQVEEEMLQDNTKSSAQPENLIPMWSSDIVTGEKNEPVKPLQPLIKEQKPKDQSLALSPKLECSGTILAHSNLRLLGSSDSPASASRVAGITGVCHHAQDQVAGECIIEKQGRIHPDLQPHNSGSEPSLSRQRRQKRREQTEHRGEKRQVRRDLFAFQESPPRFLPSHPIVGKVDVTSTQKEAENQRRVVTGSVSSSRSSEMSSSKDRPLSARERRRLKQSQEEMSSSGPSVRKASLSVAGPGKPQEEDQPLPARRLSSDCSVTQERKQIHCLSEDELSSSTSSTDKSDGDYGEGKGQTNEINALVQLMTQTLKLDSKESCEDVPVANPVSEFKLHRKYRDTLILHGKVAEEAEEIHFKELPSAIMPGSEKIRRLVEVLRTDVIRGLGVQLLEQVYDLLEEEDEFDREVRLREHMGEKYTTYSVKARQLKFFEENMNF
Sequence of Serine/threonine-protein kinase Nek9 (Homo sapiens) (Q8TD19 whole entry): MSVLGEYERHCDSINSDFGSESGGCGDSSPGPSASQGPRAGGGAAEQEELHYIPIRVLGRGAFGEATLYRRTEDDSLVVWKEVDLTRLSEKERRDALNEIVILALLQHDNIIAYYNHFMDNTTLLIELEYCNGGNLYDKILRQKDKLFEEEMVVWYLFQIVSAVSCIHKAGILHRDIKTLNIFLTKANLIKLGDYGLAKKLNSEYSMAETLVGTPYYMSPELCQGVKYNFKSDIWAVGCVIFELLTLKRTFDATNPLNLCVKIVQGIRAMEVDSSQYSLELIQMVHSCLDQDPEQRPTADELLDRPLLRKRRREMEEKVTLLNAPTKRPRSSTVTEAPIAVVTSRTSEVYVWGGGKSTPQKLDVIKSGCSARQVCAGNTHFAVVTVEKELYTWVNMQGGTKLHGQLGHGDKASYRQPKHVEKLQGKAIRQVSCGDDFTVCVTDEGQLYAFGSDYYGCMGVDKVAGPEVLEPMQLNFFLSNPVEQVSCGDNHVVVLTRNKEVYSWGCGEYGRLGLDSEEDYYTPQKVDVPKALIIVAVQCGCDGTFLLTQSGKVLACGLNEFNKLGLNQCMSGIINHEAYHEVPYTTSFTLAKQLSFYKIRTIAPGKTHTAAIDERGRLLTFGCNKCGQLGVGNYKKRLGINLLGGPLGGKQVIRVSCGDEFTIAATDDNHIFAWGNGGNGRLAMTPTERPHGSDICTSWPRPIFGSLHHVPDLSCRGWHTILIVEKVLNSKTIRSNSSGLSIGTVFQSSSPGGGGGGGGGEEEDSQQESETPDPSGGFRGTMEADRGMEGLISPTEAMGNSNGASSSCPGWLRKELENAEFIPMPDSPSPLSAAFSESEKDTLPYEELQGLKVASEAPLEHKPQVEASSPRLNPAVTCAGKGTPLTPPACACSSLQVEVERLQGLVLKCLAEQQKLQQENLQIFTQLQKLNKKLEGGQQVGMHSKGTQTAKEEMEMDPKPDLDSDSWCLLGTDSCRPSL

CC(C)(O)c1cncc(-c2nc3ccc(F)cc3n2C2CC2)c1 [MSD-CYP11B2]
inactive: residual activity [1] 100% | residual activity [2] 100% | residual activity [3] 94% | residual activity [4] 100% | residual activity [5] 100% | residual activity [6] 95% | residual activity [7] 100% | residual activity [8] 100% | residual activity [9] 100% | residual activity [10] 100% | residual activity [11] 100% | residual activity [12] 100% | residual activity [13] 100% | residual activity [14] 100% | residual activity [15] 100% | residual activity [16] 100% | residual activity [17] 100% | residual activity [18] 100% | residual activity [19] 100% | residual activity [20] 100% | residual activity [21] 100% | residual activity [22] 100% | residual activity [23] 100% | residual activity [24] 100% | residual activity [25] 90% | residual activity [26] 100% | residual activity [27] 100% | residual activity [28] 100% | residual activity [29] 100% | residual activity [30] 77% | residual activity [31] 100% | residual activity [32] 100% | inhibition [33] 16.8% | inhibition [34] -6.88% | inhibition [35] -6.18% | inhibition [36] 16.7% | inhibition [37] -1% | inhibition [38] 1%

FC(F)(F)c1ccc2c(c1)nc(-c1cccnc1)n2C1CC1 [MSD-CYP11B2-Negative-control]
inactive: residual activity [1] 100% | residual activity [2] 100% | residual activity [3] 98% | residual activity [4] 100% | residual activity [5] 100% | residual activity [6] 100% | residual activity [7] 91% | residual activity [8] 100% | residual activity [9] 100% | residual activity [10] 100% | residual activity [11] 100% | residual activity [12] 100% | residual activity [13] 100% | residual activity [14] 100% | residual activity [15] 100% | residual activity [16] 100% | residual activity [17] 100% | residual activity [18] 100% | residual activity [19] 100% | residual activity [20] 100% | residual activity [21] 100% | residual activity [22] 100% | residual activity [23] 94% | residual activity [24] 100% | residual activity [25] 78% | residual activity [26] 99% | residual activity [27] 100% | residual activity [28] 100% | residual activity [29] 100% | residual activity [30] 76% | residual activity [31] 100% | residual activity [32] 100% | inhibition [33] 8.83% | inhibition [34] -8.72% | inhibition [35] -1.96% | inhibition [39] -9.43% | inhibition [36] -1.88%
